Assay results reported in patent publication US20230399312A1, “SUBSTITUTED PYRIMIDINES AND METHODS OF USE” (THERAVANCE BIOPHARMA R&D IP, LLC, priority 2020, published 2023).

Experiments:
[1] = target: T1, recombinant human ALK5 (TGF-βR1) protein (Homo sapiens, UniProt P36897); assay: Biochemical ALK5 (TGF-βR1) assay to measure pKi (LANCE Ultra ULight kinase assay); conditions: apparent pKi, converted from pIC50 by Cheng-Prusoff
T1 construct: purchased Life Technologies PR9075A
T1 sequence (P36897 34-503): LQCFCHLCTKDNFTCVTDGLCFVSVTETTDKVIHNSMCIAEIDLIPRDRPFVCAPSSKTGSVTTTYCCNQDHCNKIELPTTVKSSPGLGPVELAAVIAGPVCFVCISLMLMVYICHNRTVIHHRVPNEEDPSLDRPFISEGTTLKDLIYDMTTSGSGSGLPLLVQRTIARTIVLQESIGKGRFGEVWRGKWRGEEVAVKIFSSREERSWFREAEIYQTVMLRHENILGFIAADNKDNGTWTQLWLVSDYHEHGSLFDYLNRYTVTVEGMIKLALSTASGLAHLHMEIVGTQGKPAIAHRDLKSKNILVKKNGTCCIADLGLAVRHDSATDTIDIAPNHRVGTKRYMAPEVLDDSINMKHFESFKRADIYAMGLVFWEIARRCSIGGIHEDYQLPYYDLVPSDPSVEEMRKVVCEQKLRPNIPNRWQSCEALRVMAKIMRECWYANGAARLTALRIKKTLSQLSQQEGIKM
How it was run: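 Enzyme was preincubated with compound for 60 min at room temperature, then ATP (added from a 125 μM 5× stock with 2 mM DTT) started a 60 min reaction at 37 °C. EDTA plus Eu-anti-phospho-Topo2α (Thr1342) antibody stopped it; TR-FRET pIC50 values were converted to pKi by Cheng-Prusoff.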

[2] = test system: TGF-β-stimulated SMAD3 phosphorylation in BEAS-2B cells; assay: Cellular ALK5 potency assay, inhibition of TGF-β stimulated pSMAD3 formation in BEAS-2B cells; format: cell-based; conditions: Homo sapiens, pSMAD3, TGF-β 10 ng/mL, read-out: BEAS2B pIC50 (converted)
How it was run: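 Cells were seeded overnight, rinsed into HEPES/BSA-supplemented HBSS, and dosed with serially diluted compound for 1 h at 37 °C, 5% CO2. TGF-β stimulation (10 ng/mL final) followed for 30 min, then lysis and AlphaLISA pSMAD3 measurement; potency reported as pIC50.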

| SMILES | Ki [1] [nM] | IC50 [2] [nM] |
| --- | --- | --- |
| Cc1cccc(-c2nccc(Nc3ccnc(Nc4ccc(NC(=O)C5CCN(CCN(C)C)CC5)cc4)n3)n2)n1 [Compound 269, 1-[2-(dimethylamino)ethyl]-N-[4-[[4-[[2-(6-methyl-2-pyridyl)pyrimidin-4-yl]amino]pyrimidin-2-yl]amino]phenyl]piperidine-4-carboxamide] | 0.0398 to 0.316 | 200 to 1260 |
| Cc1cccc(-c2nccc(Nc3ccnc(Nc4ccc(S(=O)(=O)N5CCN(C)CC5)cc4)n3)n2)n1 [Compound 270, N2-[4-(4-methylpiperazin-1-yl)sulfonylphenyl]-N4-[2-(6-methyl-2-pyridyl)pyrimidin-4-yl]pyrimidine-2,4-diamine] | 0.0398 to 0.316 | 25.1 to 158 |
| CNC(=O)[C@@H]1CN(Cc2ccc(Nc3nccc(Nc4ccnc(-c5cccc(C)n5)n4)n3)cc2)CCN1 [Compound 271, (2S)-N-methyl-4-[[4-[[4-[[2-(6-methyl-2-pyridyl)pyrimidin-4-yl]amino]pyrimidin-2-yl]amino]phenyl]methyl] piperazine-2-carboxamide] | 0.0398 to 0.316 | 25.1 to 158 |
| Cc1cccc(-c2nccc(Nc3ccnc(Nc4ccc(NS(C)(=O)=O)cc4)n3)n2)n1 [Compound 272, N-[4-[[4-[[2-(6-methyl-2-pyridyl)pyrimidin-4-yl]amino]pyrimidin-2-yl]amino]phenyl] methanesulfonamide] | 0.0398 to 0.316 | 25.1 to 158 |
| CNCCNS(=O)(=O)c1cccc(Nc2nccc(Nc3ccnc(-c4cccc(C)n4)n3)n2)c1 [Compound 273, N-[2-(methylamino)ethyl]-3-[[4-[[2-(6-methyl-2-pyridyl)pyrimidin-4-yl]amino]pyrimidin-2-yl]amino]benzenesulfonamide] | 0.0398 to 0.316 | 25.1 to 158 |
| Cc1cccc(-c2nccc(Nc3ccnc(Nc4ccc(CN5CCC(C(=O)OCC6CNC6)CC5)cc4)n3)n2)n1 [Compound 275, azetidin-3-ylmethyl 1-[[4-[[4-[[2-(6-methyl-2-pyridyl)pyrimidin-4-yl]amino]pyrimidin-2-yl]amino]phenyl]methyl] piperidine-4-carboxylate] | 0.0398 to 0.316 | 25.1 to 158 |
| Cc1cccc(-c2nccc(Nc3ccnc(Nc4ccc(NC(=O)N5CCN[C@@H](CO)C5)cc4)n3)n2)n1 [Compound 276, (3R)-3-(hydroxymethyl)-N-[4-[[4-[[2-(6-methyl-2-pyridyl)pyrimidin-4-yl]amino]pyrimidin-2-yl]amino]phenyl]piperazine-1-carboxamide] | 0.0398 to 0.316 | 25.1 to 158 |
| Cc1cccc(-c2nccc(Nc3ccnc(Nc4ccc5c(c4)CC4(CCNC4)C5)n3)n2)n1 (stereo not shown) [Compound 277, N2-(1,3-dihydrospiro[indene-2,3′-pyrrolidin]-5-yl)-N4-(2-(6-methylpyridin-2-yl)pyrimidin-4-yl)pyrimidine-2,4-diamine] | 0.0398 to 0.316 | 25.1 to 158 |
| Cc1cccc(-c2nccc(Nc3ccnc(Nc4ccc(CN5C[C@H]6C[C@@H]5CN6)cc4)n3)n2)n1 [Compound 279, N2-[4-[[(1R,4R)-2,5-diazabicyclo[2.2.1]heptan-2-yl]methyl]phenyl]-N4-[2-(6-methyl-2-pyridyl)pyrimidin-4-yl]pyrimidine-2,4-diamine] | 0.0398 to 0.316 | 25.1 to 158 |
| Cc1cccc(-c2nccc(Nc3ccnc(Nc4ccc(CC5CNC5)cc4)n3)n2)n1 [Compound 280, N2-[4-(azetidin-3-ylmethyl)phenyl]-N4-[2-(6-methyl-2-pyridyl)pyrimidin-4-yl]pyrimidine-2,4-diamine] | 0.0398 to 0.316 | 25.1 to 158 |
| Cc1cccc(-c2nccc(Nc3ccnc(Nc4ccc(N5CCOCC5)cn4)n3)n2)n1 [Compound 281, N4-[2-(6-methyl-2-pyridyl)pyrimidin-4-yl]-N2-(5-morpholino-2-pyridyl)pyrimidine-2,4-diamine] | 0.398 to 3.16 | 25.1 to 158 |
| Cc1cccc(-c2nccc(Nc3ccnc(Nc4cccc(NC(=O)C5CCN(C6CCN(C)CC6)CC5)c4)n3)n2)n1 [Compound 282, 1-(1-methyl-4-piperidyl)-N-[3-[[4-[[2-(6-methyl-2-pyridyl)pyrimidin-4-yl]amino]pyrimidin-2-yl]amino]phenyl]piperidine-4-carboxamide] | 0.0398 to 0.316 | 25.1 to 158 |
| Cc1cccc(-c2nccc(Nc3ccnc(Nc4ccc(CN5CCN[C@H](C(=O)O)C5)cc4)n3)n2)n1 [Compound 283, (2S)-4-[[4-[[4-[[2-(6-methyl-2-pyridyl)pyrimidin-4-yl]amino]pyrimidin-2-yl]amino]phenyl]methyl] piperazine-2-carboxylic acid] | 0.0398 to 0.316 | 200 to 1260 |
| Cc1cccc(-c2nccc(Nc3ccnc(Nc4ccc5[nH]ncc5c4)n3)n2)n1 [Compound 284, N2-(1H-indazol-5-yl)-N4-[2-(6-methyl-2-pyridyl)pyrimidin-4-yl]pyrimidine-2,4-diamine] | 0.398 to 3.16 | ≤ 20 |
| Cc1cccc(-c2nccc(Nc3ccnc(Nc4ccc(O)cc4)n3)n2)n1 [Compound 285, 4-[[4-[[2-(6-methyl-2-pyridyl)pyrimidin-4-yl]amino]pyrimidin-2-yl]amino]phenol] | 0.398 to 3.16 | 25.1 to 158 |
| Cc1cccc(-c2nccc(Nc3ccnc(Nc4cnn(CCCN)c4)n3)n2)n1 [Compound 286, N2-[1-(3-aminopropyl)pyrazol-4-yl]-N4-[2-(6-methyl-2-pyridyl)pyrimidin-4-yl]pyrimidine-2,4-diamine] | 0.0398 to 0.316 | 200 to 1260 |
| Cc1cccc(-c2nccc(Nc3ccnc(Nc4nc(CN5CCNCC5)cs4)n3)n2)n1 [Compound 287, N4-(2-(6-methylpyridin-2-yl)pyrimidin-4-yl)-N2-(4-(piperazin-1-ylmethyl)thiazol-2-yl)pyrimidine-2,4-diamine] | 0.398 to 3.16 | 25.1 to 158 |
| Cc1cccc(-c2nccc(Nc3ccnc(Nc4cccc(NC(=O)C5CCNCC5)c4)n3)n2)n1 [Compound 288, N-[3-[[4-[[2-(6-methyl-2-pyridyl)pyrimidin-4-yl]amino]pyrimidin-2-yl]amino]phenyl]piperidine-4-carboxamide] | 0.0398 to 0.316 | ≤ 20 |
| Cc1cccc(-c2nccc(Nc3ccnc(Nc4ccc(N5CCC(N)C5)cc4)n3)n2)n1 (stereo not shown) [Compound 289, N2-[4-(3-aminopyrrolidin-1-yl)phenyl]-N4-[2-(6-methyl-2-pyridyl)pyrimidin-4-yl]pyrimidine-2,4-diamine] | 0.0398 to 0.316 | 25.1 to 158 |
| Cc1cccc(-c2nccc(Nc3ccnc(Nc4ccc(C(=O)N5CCNCC5)cc4)n3)n2)n1 [Compound 290, [4-[[4-[[2-(6-methyl-2-pyridyl)pyrimidin-4-yl]amino]pyrimidin-2-yl]amino]phenyl]-piperazin-1-yl-methanone] | 0.0398 to 0.316 | 25.1 to 158 |
| Cc1cccc(-c2nccc(Nc3ccnc(Nc4nc(C(=O)O[C@@H]5CCN(C)C5)cs4)n3)n2)n1 [Compound 291, [(3R)-1-methylpyrrolidin-3-yl] 2-[[4-[[2-(6-methyl-2-pyridyl)pyrimidin-4-yl]amino]pyrimidin-2-yl]amino]thiazole-4-carboxylate] | 0.398 to 3.16 | 25.1 to 158 |
| Cc1cccc(-c2nccc(Nc3ccnc(Nc4cccc(C(=O)N5CCN(C(C)C)CC5)c4)n3)n2)n1 [Compound 292, (4-isopropylpiperazin-1-yl)-[3-[[4-[[2-(6-methyl-2-pyridyl)pyrimidin-4-yl]amino]pyrimidin-2-yl]amino]phenyl]methanone] | 0.398 to 3.16 | 25.1 to 158 |
| CNC(=O)[C@H]1CN(Cc2ccc(Nc3nccc(Nc4ccnc(-c5cccc(C)n5)n4)n3)cc2)CCN1 [Compound 293, (2R)-N-methyl-4-[[4-[[4-[[2-(6-methyl-2-pyridyl)pyrimidin-4-yl]amino]pyrimidin-2-yl]amino]phenyl]methyl] piperazine-2-carboxamide] | 0.0398 to 0.316 | 25.1 to 158 |
| Cc1cccc(-c2nccc(Nc3ccnc(Nc4ccc(F)c(CO)c4)n3)n2)n1 [Compound 294, [2-fluoro-5-[[4-[[2-(6-methyl-2-pyridyl)pyrimidin-4-yl]amino]pyrimidin-2-yl]amino]phenyl]methanol] | 0.0398 to 0.316 | ≤ 20 |
| Cc1cccc(-c2nccc(Nc3ccnc(Nc4ccc(Cl)c(CO)c4)n3)n2)n1 [Compound 295, [2-chloro-5-[[4-[[2-(6-methyl-2-pyridyl)pyrimidin-4-yl]amino]pyrimidin-2-yl]amino]phenyl]methanol] | 0.0398 to 0.316 | 25.1 to 158 |
| Cc1cccc(-c2nccc(Nc3ccnc(Nc4ccc(NS(=O)(=O)C5CNC5)cc4)n3)n2)n1 [Compound 296, N-[4-[[4-[[2-(6-methyl-2-pyridyl)pyrimidin-4-yl]amino]pyrimidin-2-yl]amino]phenyl]azetidine-3-sulfonamide] | 0.398 to 3.16 | 200 to 1260 |
